Results as given in patent US20070299136A1, “Crystalline and Amorphous Forms of Efaproxiral Sodium” (priority 2004, published 2007).

Key:
Type in all cases: physicochemical
[1] = Moisture balance / relative humidity exposure of efaproxiral sodium solid forms; settings: for solid form after relative humidity is decreased to 5%: RH lowered to about 5% RH, sodium salt
Protocol: Approximately 100 mg of efaproxiral sodium Form A was placed in a 20 mL glass vial. The vial was placed, uncapped, in an ambient temperature relative humidity jar at 75% relative humidity for approximately 24 hours.
A quantity of Form A was placed on a weigh pan at about 0% relative humidity (RH). The RH was slowly raised to about 95% (adsorption) and was then lowered back to about 5% RH (desorption). The weight of the solid material was measured throughout. The results are depicted in FIG. 10. […] The resulting Form I loses slightly less than 4 moles of water as the humidity is further lowered to about 5% RH.

[2] = Solid form remaining after heating or drying (XRPD)
Protocol: XRPD analyses were carried out on a Shimadzu XRD-6000 X-ray powder diffractometer using Cu Kα radiation. The instrument is equipped with a long fine focus X-ray tube. The tube voltage and amperage were set at […] and 40 mA, respectively. The divergence and scattering slits were set at 1° and the receiving slit was set at 0.15 mm. Diffracted radiation was detected by a […] scintillation detector. A theta-two theta continuous scan at 3′/min (0.4 sec/0.02° step) from 2.5 to 40 °2θ was used. A silicon standard was analyzed each day to check the instrument alignment. Samples were analyzed with an aluminum/silicon sample holder.
Efaproxiral sodium Form A (1125.7 mg) was dissolved completely in […] of ethanol at 48° C. Acetone (7600 μL) was slowly added over a one minute period. Form G and Form Q formed in the reactor at this time. After 1 minute 50 seconds, a further 6250 μL of acetone was added and the reactor was allowed to cool to approximately 25° C. and then to approximately 15° C. The solid material in the reactor during this interval was Form Q. After approximately 10 minutes had passed from the initial addition of acetone, the resulting powdery white solid was collected by vacuum filtration, washed with 6000 μL acetone and dried in a 52° C. vacuum oven.

[3] = Thermogravimetric analysis (TGA) of solvated forms, ambient to 165° C.; settings: for TGA weight loss: temperature raised from ambient to 165° C., sodium salt
Protocol: A screen for polymorphs and solvates of efaproxiral sodium was performed using a variety of crystallization techniques. The resulting polymorphs were analyzed using a number of analytical techniques well known in the art for their ability to differentiate between different polymorphs, including thermogravimetric analysis (TGA), reflectance Fourier transform infrared (FTIR) spectroscopy (see EXAMPLE 2), and X-ray powder diffraction (XRPD) (see EXAMPLE 3). TGA is often very useful for distinguishing between different solid forms of a material because the temperature(s) at which a physical change in a material occurs is usually characteristic of the polymorph or solvate. X-Ray Powder Diffraction (XRPD) is a technique that detects long-range and short-range order in a crystalline material. IR spectroscopy also detects both intramolecular and intermolecular bonding in solids, and further provides information regarding the chemical composition of the crystalline material.

[4] = Form A exposed to approximately 95% humidity

SMILES: Cc1cc(C)cc(NC(=O)Cc2ccc(OC(C)(C)C(=O)[O-])cc2)c1.[Na+] [Form A, 2-[4-[2-[(3,5-dimethylphenyl)amino]-2-oxoethyl]phenoxy]-2-methyl-propionic acid, sodium salt]
- water uptake equivalent to weight gain [1, 4]: approximately 7 moles of water/mole efaproxiral sodium
- weight gain [1, 4]: approximately 34%
- water uptake equivalent to weight gain ([1]; Form A incubated at high relative humidity): about 4 moles of water/mole efaproxiral sodium
- weight gain ([1]; Form A incubated at high relative humidity (75% RH, ambient temperature, approximately 24 hours)): approximately 20%
- water gained (adsorption) ([1]; RH raised from about 0% to about 85% RH, converts to Form I): about 4 moles of water/mole efaproxiral sodium
- solid form after incubation at high relative humidity ([1]; high relative humidity): Form I
- further water gained (adsorption) ([1]; humidity raised further to about 95% RH, converts to Form J): about 3 moles of water/mole efaproxiral sodium

SMILES: Cc1cc(C)cc(NC(=O)Cc2ccc(OC(C)(C)C(=O)[O-])cc2)c1.[Na+] [Form F, 2-[4-[2-[(3,5-dimethylphenyl)amino]-2-oxoethyl]phenoxy]-2-methyl-propionic acid, sodium salt]
- removal of lattice solvent (methanol) by heating ([2]; 80° C. for approximately 3 hours): can be removed

SMILES: Cc1cc(C)cc(NC(=O)Cc2ccc(OC(C)(C)C(=O)[O-])cc2)c1.[Na+] [Form I, 2-[4-[2-[(3,5-dimethylphenyl)amino]-2-oxoethyl]phenoxy]-2-methyl-propionic acid, sodium salt]
- solid form after relative humidity is decreased to 5% [1]: amorphous efaproxiral sodium
- water lost (desorption) ([1]; humidity further lowered to about 5% RH): less than 4 moles of water

SMILES: Cc1cc(C)cc(NC(=O)Cc2ccc(OC(C)(C)C(=O)[O-])cc2)c1.[Na+] [Form J, 2-[4-[2-[(3,5-dimethylphenyl)amino]-2-oxoethyl]phenoxy]-2-methyl-propionic acid, sodium salt]
- solid form after relative humidity is decreased to 5% [1]: Amorphous material
- water lost (desorption) ([1]; humidity lowered from about 95% to about 20% RH, converts to Form I): about 3 moles of water/mole efaproxiral sodium

SMILES: Cc1cc(C)cc(NC(=O)Cc2ccc(OC(C)(C)C(=O)[O-])cc2)c1.[Na+] [Form P, 2-[4-[2-[(3,5-dimethylphenyl)amino]-2-oxoethyl]phenoxy]-2-methyl-propionic acid, sodium salt]
- solvent loss equivalent to TGA weight loss ([3]; ambient to 165° C.): about 1 mole of ethanol per mole of efaproxiral sodium
- TGA weight loss [3]: approximately 10.6%
- solid form remaining after heating (XRPD) ([2]; heated to 156° C.): Form A

SMILES: Cc1cc(C)cc(NC(=O)Cc2ccc(OC(C)(C)C(=O)[O-])cc2)c1.[Na+] [Form Q, 2-[4-[2-[(3,5-dimethylphenyl)amino]-2-oxoethyl]phenoxy]-2-methyl-propionic acid, sodium salt]
- solvent loss equivalent to TGA weight loss ([3]; ambient to about 165° C.): ½ to about ⅓
- TGA weight loss [3]: approximately 5.7%
- solid form after drying ([2]; 52° C. vacuum oven, 14 hours of drying): Form Q
- solid form after drying ([2]; 52° C. vacuum oven, 32 hours of drying): Form Q
- solid form after drying ([2]; dried at 70° C. under vacuum): Form B
- solid form remaining after heating (XRPD) ([2]; heated to about 165° C.): Form A
